According to patent US5447915A, “Terminally blocked antiviral peptides” (priority 1992, dated 1995):
Non-standard residues stand in square brackets, D forms with d. Residues, ends and D or L forms follow the SMILES beside them. *: point of attachment. OBn = c1ccc(CO*)cc1

What was measured:
[1] = target: T1, human immunodeficiency virus (HIV-1) glycoprotein gp120 (Human immunodeficiency virus type 1 group M subtype B, UniProt P03375); assay type: binding; conditions: HSBCD4-M.23 cells; for inhibition of gp120 binding to CD4 (corrected mean fluorescence of CD4-expressing cells): gp120 preincubated with peptide 1 hour 37° C., about 50 μM to 900 μM
T1 construct: a solution of gp120 (20 μg/ml) (synthesized in vitro from baculovirus and obtained from MicroGeneSys); purchased MicroGeneSys, West Haven, Conn; host or cells: gp120 from baculovirus expression; CD4 on HSBCD4-M.23 cells (HSB-2 clone transfected with CD4 cDNA)
Procedure: The peptides prepared as described in Example 1 were characterized as to their ability to bind to the human immunodeficiency virus (HIV-1) glycoprotein gp120. This ability was assayed on the basis of the peptides ability to inhibit binding of gp120 to the human CD4 protein.
On the day of the assay the peptides were diluted 10-fold in phosphate buffered saline (PBS) and 2-fold serial dilutions made into PBS previously adjusted to the same DMSO concentration (10%). 25 μl each of each peptide solution and a solution of gp120 (20 μg/ml) (synthesized in vitro from baculovirus and obtained from MicroGeneSys, West Haven, Conn.) were combined and incubated at 37° C. for 1 hour. A total of 3-5×10^5 HSBCD4-M.23 cells [derived from a clone of the pre-T cell leukemia line HSB-2 (obtained from the American Type Culture Collection (ATCC), Rockville, Md.) which expresses human CD4 as a result of transfaction of CD4 cDNA sequences; Diamond et al., Proc. Natl. Acad. Sci. 87: xxxx (1990)] were pelleted in the walls of a 96-well V-bottom microtiter plate, resuspended with the preincubated gp 120-peptide mixture and allowed to incubate at 4° C. for 1 hour. The cells were then pelleted and resuspended in 50μl of a solution containing rabbit anti-gp120 antibody (diluted 1:400 in PBS; MicroGeneSys, West Haven, Conn.) and incubated at 4° C. for 30 min. The cells were again pelleted, washed with 100 μl PBS and resuspended in 50μl of a solution containing fluorescein isothiocyanate (FITC)-conjugated goat anti-rabbit antibody (diluted 1:20; Tago) and incubated at 4° C. for 30 min. The cells were pelleted and washed as before, and resuspended in 100 μl of a solution containing propidium iodine at a concentration of 25 μg/ml and transferred to tubes containing 400 μl PBS for flow cytometric analysis on an Epics V (Coulter) for FAtScan (Betton-Dickinson,Mountainview, Calif.). Cells were gated on propidium iodide to exclude dead cells. Green fluorescence was collected on the linear amplifier and the mean fluorescence calculated.

HIV = test: Inhibition of HIV infection of CD4-expressing human peripheral blood lymphocytes, p24 antigen; assay type: cell-based; conditions: peptide 160 μg/ml; human T cells from PBL
Procedure: These cells were obtained by depleting peripheral blood mononuclear cells isolated by passage through nylon wool [Finberg et al., Science 249: 287-291 (1990)]using antibodies specific for CD8 (OKTS, obtained from ATCC) and CD16 (B73.1, a gift of G. Trinchieri) followed by treatment with antibody-coated magnetic beads [Haregerwoin et al., Nature 340: 309 (1989)]. This treatment enriches the cell population for CD4-expressing human peripheral T cells. Virus was incubated for 1 hour at 37° C. with varying concentrations of CPF(DD), or with CPF(6F) at a concentration of 160 μg/ml. The treated virus preparation was then incubated with cells for 1 hour at 37° C. Cells were washed twice and maintained in RPMI 1640/10% FCS supplemented with interleukin 2 [10 units/ml, Collaborative Research]. Cells were maintained and assayed for p24 production as described above.

HIV-1 = conditions: peptide 80 μg/ml; after 4 days of co-cultivation for CPF(DD)
Procedure: PBL-derived human T cells, infected with HIV-1, were washed extensively with RPMI 1640 media and then 10^4 infected T cells were added to 5×10^5 uninfected H9 cells in the presence or absence of CPF(DD) or CPF(δF) at concentrations of 80 μg/ml. Cells were co-cultivated and maintained at H9 cell densities of 5×10^5 cells/ml and tested after 2, .varies.and 6 days of co-cultivation. The extent of infection of H9 cells was determined by p24 antigen ELISA assay, performed 48 hours after washing the T-cell-H-9 cell mixture free of virus.

[2] = tested on: conjugate formation between HBSCD4-M.23 cells and Daudi cells; conditions: peptide 100 μg/ml, gp120 20 μg/ml
Procedure: Conjugate formation was assayed using HBSCD4-M.23 cells and cells from the human MHC-expressing cell line Daudi (available from ATCC). The HBSCD4-M.23 cells were labeled with 0.5 μg/ml sulfofluorescein diacetate (Molecular Probes, Eugene, Oreg.) and the Daudi cells were labeled with 40 ng/ml hydroethidine (Polysciences, Warrington, Pa.) and mixed at a 1:2 ratio (HBSCD4-M.23:Daudi) at a total concentration of 1×10^6 cells/mi. Cells were then incubated in 30 μl RPMI 1640 media at 37° C. for at least 90 minutes in the presence or absence of CPF(DD) or CPF(δF) (at concentrations of 100 μg/ml) and gp120 (20 μg/ml). At the end of the incubation, the cells were gently resuspended to preserve conjugates and scored by fluorescence microscopy. Positive conjugates were scored as at least two cells displaying one fluorescent color bound to at least one cell displaying the other fluorescent color. Samples were analyzed blinded as to their identity, and in duplicate, and at least three counts of 100 fluorescein-labeled cells were performed for each sample. The percentage of conjugates scored was calculated as the total number of conjugates scored divided by the total number of conjugates plus free CD4-expressing (fluorescein-labeled) cells.

[3] = tested on: IL-2 production in 16CD4-9 T cell hybridoma cells; conditions: peptide 200 μg/ml, gp120 5-10 μg/ml, diluted 20-fold and reconcentrated by ultrafiltration
Procedure: These gp120 solutions were then diluted 20-fold with PBS and the gp120 reconcentrated by ultrafiltration as described in Example 2. The recovered gp120 solutions were then combined with 1×10^5 16CD4-9 T cell hybridoma cells (available from ATCC) and 2×10^5 Daudi cells and cultured overnight at 37° C. IL-2 was detected in the culture supernatants using a cell proliferation assay [Watson, J. Exp. Med. 150: 1510-1515 (1979)], with the modification that proliferation was detected colorimetrically as the cleavage of 3-(4,5-dimethyl-thiazol)-2,6-diphenyl-tetrazolium bromide (MTT) [Finberg et al., Science 249: 287-291 (1990)].

COC(=O)C(=O)N1CCC[C@@H]1C(=O)OCc1ccccc1 [CPF(δF), N-carbomethoxylcarbonyl-D-Pro-OBn]
inhibition of gp120 binding to CD4 (corrected mean fluorescence of CD4-expressing cells) [1]: does not inhibit gp120 binding to CD4-expressing human cells
kinetics and maximum production of p24 (HIV): does not effect either the kinetics or the maximum production of p24
p24 antigen in supernatant after co-cultivation of infected T cells and uninfected H9 cells (HIV-1): no different from those detected in co-cultures of T cells and H9 cells incubated without peptides
conjugate formation in presence of gp120 preincubated with peptide [2]: does not restrict gp120-mediated inhibition of conjugate formation
IL-2 production in presence of gp120 preincubated with peptide [3]: slight increase in the amount of IL-2

N-carbomethoxylcarbonyl-D-Pro-D-Ala-OBn [CPF(F→A)]
concentration giving 50% inhibition of gp120 binding, fold higher than for CPF(LL) ([1]; in comparison with CPF(LL)): 2-5 fold

O=C(N[C@H](Cc1ccccc1)C(=O)OCc1ccccc1)[C@H]1CCCN1 [(DD) prolylphenylalanylbenzylester] (H-[dP]-[dF]-OBn)
inhibition of gp120 binding to CD4 (corrected mean fluorescence of CD4-expressing cells) [1]: unable to inhibit gp120 binding

COC(=O)C(=O)N[C@H](Cc1ccccc1)C(=O)OCc1ccccc1 [CPF(δP), N-carbomethoxylcarbonyl-D-Phe-OBn]
inhibition of gp120 binding to CD4 (corrected mean fluorescence of CD4-expressing cells) [1]: does not inhibit gp120 binding to CD4-expressing human cells
